The values below come from patent US6875760B2 (Novo Nordisk A/S, priority 1999, dated 2005).

The assay addresses T1, human glucagon receptor (Homo sapiens, UniProt P47871).
T1 construct: expressed in transfected cells; host or cells: BHK (baby hamster kidney) cells
Briefly: Glucagon Binding Assay (III). The note with it: BHK cell membranes, WGA SPA beads, 125I-glucagon; read-out: Glu Bd Assay (III) IC50. As for the experimental part: BHK (baby hamster kidney cell line) cells were transfected with the human glucagon receptor and a membrane preparation of the cells was prepared.
All steps in the membrane preparation were kept on ice or performed at 4° C. BHK cells were harvested and centrifuged. […] The pellet was resuspended in homogenisation buffer, homogenised 2×10 sec (Polytron) and additional homogenisation buffer was added. […] (Polytron).
The glucagon binding assay was carried out in opti plates (Polystyrene Microplates, Packard). […] Finally 50 μL WGA beads containing 1 mg beads were transferred to the well. The assay was incubated for 4 hours on a shaker and then settled for 8-48 hours. The opti plates were counted in a Topcounter. Non-specific binding was determined with 500 nM of glucagon.

T1 sequence (P47871 26-477): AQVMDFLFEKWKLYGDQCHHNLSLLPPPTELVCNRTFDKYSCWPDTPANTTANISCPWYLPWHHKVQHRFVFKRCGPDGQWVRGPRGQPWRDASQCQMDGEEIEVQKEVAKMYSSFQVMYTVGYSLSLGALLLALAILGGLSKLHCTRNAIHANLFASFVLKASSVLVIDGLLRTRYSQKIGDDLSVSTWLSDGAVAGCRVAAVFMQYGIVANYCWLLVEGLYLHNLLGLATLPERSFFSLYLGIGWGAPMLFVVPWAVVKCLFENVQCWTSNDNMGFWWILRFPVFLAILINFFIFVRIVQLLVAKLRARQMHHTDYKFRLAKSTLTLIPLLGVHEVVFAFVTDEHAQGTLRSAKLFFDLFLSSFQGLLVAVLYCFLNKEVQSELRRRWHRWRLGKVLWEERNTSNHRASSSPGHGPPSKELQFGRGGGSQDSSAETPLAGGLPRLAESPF

Take `CCCCC(CC)CN(Cc1ccc(C(=O)NCCC(=O)O)cc1)C(=O)Nc1ccc(C(C)C)cc1` (stereo not shown) [Example 43, 3-{4-[1-(2-Ethylhexyl)-3-(4-isopropylphenyl)ureidomethyl]benzoylamino}propionic acid]: the concentration for half-maximal inhibition (IC50) (in general, the concentration at which inhibition is half-maximal) was found to be 1110 nM.

As to `CC1CCCC(N(Cc2ccc(C(=O)NCCC(=O)O)cc2)C(=O)Nc2ccc(Oc3ccccc3)cc2)C1` (stereo not shown) [Example 44, 3-{4-[1-(3-Methylcyclohexyl)-3-(4-phenoxyphenyl)ureidomethyl]benzoylamino}propionic acid], the IC50 was 819 nM.

Consider `CC1CCC(N(Cc2ccc(C(=O)NCCC(=O)O)cc2)C(=O)Nc2ccc(OCc3ccccc3)cc2)CC1` (stereo not shown) [Example 45, 3-{4-[3-(4-Benzyloxyphenyl)-1-(4-methylcyclohexyl)ureidomethyl]benzoylamino}propionic acid], for which the IC50 stood at 1190 nM.

For the compound `CCc1ccc(NC(=O)N(CCc2ccc(Cl)c(Cl)c2)Cc2ccc(C(=O)NCCC(=O)O)cc2)cc1` [Example 46, 3-{4-[1-[2-(3,4-Dichlorophenyl)ethyl)-3-(4-ethylphenyl)ureidomethyl]benzoylamino}propionic acid], the IC50 was 456 nM.

With `O=C(O)CCNC(=O)c1ccc(CN(CCc2ccc(Cl)c(Cl)c2)C(=O)Nc2ccc(OCc3ccccc3)cc2)cc1` [Example 47, 3-{4-[3-(4-Benzyloxyphenyl)-1-[2-(3,4-dichlorophenyl)ethyl]ureidomethyl]benzoylamino}propionic acid], the 50% inhibitory concentration (IC50) is 1100 nM.

For the compound `CC1CCCCC1N(Cc1ccc(C(=O)NCCC(=O)O)cc1)C(=O)Nc1ccc(Oc2ccccc2)cc1` (stereo not shown) [Example 48, 3-{4-[1-(2-Methylcyclohexyl)-3-(4-phenoxyphenyl)ureidomethyl]benzoylamino}propionic acid], the IC50 was 1080 nM.

On to `CCCCOC(=O)c1ccc(NC(=O)N(Cc2ccc(C(=O)NCCC(=O)O)cc2)CC(C)c2ccccc2)cc1` (stereo not shown) [Example 49, 4-[3-[4-(2-Carboxyethylcarbamoyl)benzyl]-3-(2-phenylpropyl)ureido]benzoic acid butyl ester], for which the 50% inhibitory concentration (IC50) came out at 1320 nM.

Take `CC(C)c1ccc(NC(=O)N(Cc2ccc(C(=O)NCCC(=O)O)cc2)CC(C)c2ccccc2)cc1` (stereo not shown) [Example 50, 3-{4-[3-(4-Isopropylphenyl)-1-(2-phenylpropyl)ureidomethyl]benzoylamino}propionic acid]: the IC50 was 564 nM.

As to `CCCCOC(=O)c1ccc(NC(=O)N(CCc2ccc(Cl)cc2)Cc2ccc(C(=O)NCCC(=O)O)cc2)cc1` [Example 51, 4-{3-[4-(2-Carboxyethylcarbamoyl)benzyl]-3-[2-(4-chlorophenyl)ethyl]ureido}benzoic acid butyl ester], the IC50 stood at 721 nM.

Regarding `CC(C)c1ccc(NC(=O)N(CCc2ccc(Cl)cc2)Cc2ccc(C(=O)NCCC(=O)O)cc2)cc1` [Example 52, 3-{4-[1-[2-(4-Chlorophenyl)ethyl]-3-(4-isopropylphenyl)ureidomethyl]benzoylamino}propionic acid], the IC50 came out at 383 nM.

For `O=C(O)CCNC(=O)c1ccc(CN(CC(c2ccccc2)c2ccccc2)C(=O)Nc2ccc(Oc3ccccc3)cc2)cc1` [Example 53, 3-{4-[1-(2,2-Diphenylethyl)-3-(4-phenoxyphenyl)ureidomethyl]benzoylamino}propionic acid], the half-inhibitory concentration (IC50) was found to be 505 nM.

For the compound `CCCCOC(=O)c1ccc(NC(=O)N(Cc2ccc(C(=O)NCCC(=O)O)cc2)CC(c2ccccc2)c2ccccc2)cc1` [Example 54, 4-[3-[4-(2-Carboxyethylcarbamoyl)benzyl]-3-(2,2-diphenylethyl)ureido]benzoic acid butyl ester], the IC50 was 337 nM.

Consider `CC(C)c1ccc(NC(=O)N(Cc2ccc(C(=O)NCCC(=O)O)cc2)CC(c2ccccc2)c2ccccc2)cc1` [Example 55, 3-{4-[1-(2,2-Diphenylethyl)-3-(4-isopropylphenyl)ureidomethyl]benzoylamino}propionic acid], for which the half-maximal inhibitory concentration (IC50) amounted to 1000 nM.

Consider `CC(C)c1ccc(NC(=O)N(Cc2ccc(C(=O)NCCC(=O)O)cc2)C2CCC(C(C)(C)C)CC2)cc1` (stereo not shown) [Example 56, 3-{4-[1-(4-tert-Butylcyclohexyl)-3-(4-isopropylphenyl)ureidomethyl]benzoylamino}propionic acid], for which the IC50 was determined as 59 nM.

On to `CC(C)(C)C1CCC(N(Cc2ccc(C(=O)NCCC(=O)O)cc2)C(=O)Nc2ccc(Oc3ccccc3)cc2)CC1` (stereo not shown) [Example 57, 3-{4-[1-(4-tert-Butylcyclohexyl)-3-(4-phenoxyphenyl)ureidomethyl]benzoylamino}propionic acid], for which the IC50 is 90 nM.

As for `CC(C)(C)C1CCC(N(Cc2ccc(C(=O)NCCC(=O)O)cc2)C(=O)Nc2ccc(SC(F)(F)F)cc2)CC1` (stereo not shown) [Example 58, 3-{4-[1-(4-tert-Butylcyclohexyl)-3-(4-trifluoromethylsulfanylphenyl)ureidomethyl]benzoylamino}propionic acid], the concentration for half-maximal inhibition (IC50) amounted to 139 nM.

Regarding `COc1ccc(NC(=O)N(Cc2ccc(C(=O)NCCC(=O)O)cc2)C2CCC(C(C)(C)C)CC2)cc1` (stereo not shown) [Example 59, 3-{4-[1-(4-tert-Butylcyclohexyl)-3-(4-methoxyphenyl)ureidomethyl]benzoylamino}propionic acid], the IC50 came to 3800 nM.

Take `CC(=O)c1ccc(NC(=O)N(Cc2ccc(C(=O)NCCC(=O)O)cc2)C2CCC(C(C)(C)C)CC2)cc1` (stereo not shown) [Example 60, 3-{4-[3-(4-Acetylphenyl)-1-(4-tert-butylcyclohexyl)ureidomethyl]benzoylamino}propionic acid]: the IC50 came to 83 nM.

Turning to `CCCCOC(=O)c1ccc(NC(=O)N(Cc2ccc(C(=O)NCCC(=O)O)cc2)C2CCC(C(C)(C)C)CC2)cc1` (stereo not shown) [Example 61, 4-{3-(4-tert-Butylcyclohexyl)-3-[4-(2-carboxyethylcarbamoyl)benzyl]ureido}benzoic acid butyl ester], the IC50 was determined as 48 nM.

For `CC(C)Cc1ccc(NC(=O)N(Cc2ccc(C(=O)NCCC(=O)O)cc2)C2CCC(C(C)(C)C)CC2)cc1` (stereo not shown) [Example 62, 3-{4-[1-(4-tert-Butylcyclohexyl)-3-(4-isobutylphenyl)ureidomethyl]benzoylamino}propionic acid], the IC50 came to 39 nM.

Regarding `CC(C)(C)C1CCC(N(Cc2ccc(C(=O)NCCC(=O)O)cc2)C(=O)Nc2ccc(C(F)(F)F)cc2)CC1` (stereo not shown) [Example 63, 3-{4-[1-(4-tert-Butylcyclohexyl)-3-(4-trifluoromethylphenyl)ureidomethyl]benzoylamino}propionic acid], the concentration for half-maximal inhibition (IC50) stood at 645 nM.

In the case of `CC1C(N(Cc2ccc(C(=O)NCCC(=O)O)cc2)C(=O)Nc2ccc(OC(F)(F)F)cc2)CC2CC1C2(C)C` (stereo not shown) [Example 65, 3-{4-[3-(4-Trifluoromethoxyphenyl)-1-(2,6,6-trimethylbicyclo[3.1.1]hept-3-yl)ureidomethyl]benzoylamino}propionic acid], the IC50 amounted to 183 nM.

As to `CC(C)c1ccc(NC(=O)N(Cc2ccc(C(=O)NCCC(=O)O)cc2)C2CC3CC(C2C)C3(C)C)cc1` (stereo not shown) [Example 66, 3-{4-[3-(4-Isopropylphenyl)-1-(2,6,6-trimethylbicyclo[3.1.1]hept-3-yl)ureidomethyl]benzoylamino}propionic acid], the half-inhibitory concentration (IC50) worked out at 267 nM.

For `CC(C)(C)C1CCC(N(Cc2ccc(C(=O)NCCC(=O)O)cc2)C(=O)Nc2ccc([N+](=O)[O-])cc2)CC1` (stereo not shown) [Example 67, 3-{4-[1-(4-tert-Butylcyclohexyl)-3-(4-nitrophenyl)ureidomethyl]benzoylamino}propionic acid], the IC50 was 891 nM.

In the case of `CC(C)(C)C1CCC(N(Cc2ccc(C(=O)NCCC(=O)O)cc2)C(=O)Nc2ccc(-c3ccc(C#N)cc3)cc2)CC1` (stereo not shown) [Example 68, 3-{4-[1-(4-tert-Butylcyclohexyl)-3-(4′-cyanobiphenyl-4-yl)ureidomethyl]benzoylamino}propionic acid], the half-maximal inhibitory concentration (IC50) was determined as 552 nM.

`CCCCOc1ccc(NC(=O)N(Cc2ccc(C(=O)NCCC(=O)O)cc2)C2CCC(C(C)(C)C)CC2)cc1` (stereo not shown) [Example 69, 3-{4-[3-(4-Butoxyphenyl)-1-(4-tert-butyl-cyclohexyl)ureidomethyl]benzoylamino}propionic acid]: the half-inhibitory concentration (IC50) was found to be 90 nM.

As to `CC(C)(C)C1CCC(N(Cc2ccc(C(=O)NCCC(=O)O)cc2)C(=O)Nc2ccc(C#N)c(C(F)(F)F)c2)CC1` (stereo not shown) [Example 70, 3-{4-[1-(4-tert-Butylcyclohexyl)-3-(4-cyano-3-trifluoromethylphenyl)ureidomethyl]benzoylamino}propionic acid], the IC50 was 168 nM.

Take `CC(C)(C)C1CCC(N(Cc2ccc(C(=O)NCCC(=O)O)cc2)C(=O)Nc2ccc(F)c(C(F)(F)F)c2)CC1` (stereo not shown) [Example 71, 3-{4-[1-(4-tert-Butylcyclohexyl)-3-(4-fluoro-3-trifluoromethylphenyl)ureidomethyl]benzoylamino}propionic acid]: the half-inhibitory concentration (IC50) is 124 nM.

In the case of `CC(C)(C)C1CCC(N(Cc2ccc(C(=O)NCCC(=O)O)cc2)C(=O)Nc2ccc(F)c(F)c2)CC1` (stereo not shown) [Example 72, 3-{4-[1-(4-tert-Butylcyclohexyl)-3-(3,4-difluorophenyl)ureidomethyl]benzoylamino}propionic acid], the concentration for half-maximal inhibition (IC50) worked out at 673 nM.

Regarding `CC(C)OC(=O)c1ccc(NC(=O)N(Cc2ccc(C(=O)NCCC(=O)O)cc2)C2CCC(C(C)(C)C)CC2)cc1` (stereo not shown) [Example 73, 4-{3-(4-tert-Butylcyclohexyl)-3-[4-(2-carboxyethylcarbamoyl)benzyl]ureido}benzoic acid isopropyl ester], the IC50 was 245 nM.

For `CC(C)(C)C1CCC(N(Cc2ccc(C(=O)NCCC(=O)O)cc2)C(=O)Nc2ccc(Cl)c(C(F)(F)F)c2)CC1` (stereo not shown) [Example 74, 3-{4-[1-(4-tert-Butylcyclohexyl)-3-(4-chloro-3-trifluoromethylphenyl)ureidomethyl]benzoylamino}propionic acid], the IC50 was determined as 61 nM.
